Assay results reported in publication PMC6099102, “Effect of the Nature of Donor Atoms on the Thermodynamic, Kinetic and Relaxation Properties of Mn(II) Complexes Formed With Some Trisubstituted 12-Membered Macrocyclic Ligands” (Frontiers in Chemistry, 2018).
Values joined by “and” are separate entries in the source; they are usually repeats but may differ in a detail not shown here. Identical values can stand only once.

What was measured:
[1] = ref Rolla et al. ([2013]); cited from earlier work
[2] = Protonation constants of the ligands by pH-potentiometric titration; assay type: physicochemical; conditions: I = 0.15 M NaCl, 25 °C; for Σ log K2H: log K1H + log K2H
Procedure: The concentration of the ligand solutions was determined by pH-potentiometric titration in the presence and absence of an excess (5–10 fold) of MnCl2. For determining the protonation constants of the investigated ligands, pH-potentiometric titrations were made by means of 0.2 M standardized NaOH in 2 and 3 mM ligand solutions in the pH-range of 1.75–11.85. All equilibrium measurements were performed at a constant 0.15 M NaCl ionic strength at 25 °C. The protonation and the stability constants of the Mn(II) complexes were determined by pH-potentiometric titrations (DOTP, DO3A, PCTA, ODO3A, DO3P) while owing to the slow formation rates of Mn(II) complexes formed with amide type ligands, the stability constants of DOTAM, DOTMA, DO3AM^H, PC3AM^H, PC3AM^Gly, PC3AM^Pip complexes were determined by out-of-cell pH-potentiomertry in combination with ^1H relaxometry. The metal-to-ligand concentration ratio in the solutions was 1:1. For the calculation of protonation constants of the ligands and the log KMnL and log KMnLHi values of the complexes, mL–pH data pairs (50–180), obtained in the pH range of 1.75–11.85 or r1obs-pH data pairs (10–15 batch samples) obtained in the pH range of 2–4.5 were used (the samples were equilibrated for 4–7 days). The equilibrium constants characterizing the deprotonation that occurs at basic pH were determined from the data obtained via direct pH-potentiometric titrations performed on the pre-formed complexes.
The pH-potentiometric titrations were carried out with a Methrohm 888 Titrando titration workstation using a Metrohm-6.0233.100 combined electrode. The samples (6.00 mL) were thermostated at 25 °C. The samples were stirred and kept under inert gas (N2) to avoid the effect of CO2. KH-phthalate (pH = 4.005) and borax (pH = 9.177) buffers were used for the pH-calibration. The method proposed by Irving et al. was used for the calculation of H^+ concentrations from the measured pH values (Irving et al., [1967]). A 0.01 M HCl (I = 0.15 M set with NaCl) solution was titrated with standardized NaOH solution of known concentration (approx. 0.2 M). The correction factor obtained as difference of calculated pH and measured pH values was used to calculate the [H^+] in the samples. The ionic product of water was determined from the same titrations (HCl/NaOH) from the data collected in the pH range of 11.20–11.85.
The protonation and complexation equilibria of the macrocyclic ligands and their Mn(II) complexes have been studied by pH-potentiometric and relaxometric methods in the presence of 0.15 M NaCl whose ionic strength mimics the physiological conditions. The protonation constants of the ligands were evaluated by fitting the pH-V(mL) base data pairs collected in the pH-potentiometric titrations. The protonation equilibria of the ligands can be described by Equation (2). (a comparison of previously published log K^H data available in the Supplementary Material) together with the constants of H4DOTA, cis- and trans-H2DO2A derivatives given for comparison. (2) KiH=[HiL]/[Hi-1L][H^+],i=1,2,…

[3] = Dissociation kinetics of the Mn(II) complexes (acid catalyzed dissociation, metal or ligand exchange reactions); assay type: physicochemical; conditions: I = 0.15 M NaCl, 25 °C
Procedure: The dissociation reactions were followed by UV-vis spectrophotometry at 269 nm for the pyclen derivatives or at 300 nm for other complexes in the pH range of 3.6–5.0 for the exchange reactions with Cu(II) and up to pH = 6.0 when Zn(II) was used as a ligand scavenger. The acid catalyzed dissociation reactions were performed in the HCl concentration range of 0.05–1.0 M. The concentration of the complexes in the samples was 0.25 mM, while the concentration of the exchanging metal ion in the metal initiated transchelation reactions was 10–40 times higher to ensure pseudo-first-order conditions. Relaxometry was used to follow the transchelation reactions of [Mn(DOTAM)]^2+, [Mn(DO3AM^H)]^2+, [Mn(DO3A)]^−, [Mn(PCTA)]^− and [Mn(ODO3A)]^− with Cu(II)/Zn(II) ions in the pH range of 3.6–5.5 (Figures S17–S19 in Supplementary Material). The concentration of the complexes in these samples was set to 1.0–2.0 mM to achieve relatively large change during the dissociation reaction. […] The temperature was maintained at 25 °C and the ionic strength of the solutions was kept constant at 0.15 M with NaCl. N,N′-dimethyl- (DMP) and N-methyl-piperazine (NMP) buffers (log K2H = 4.18 and 4.90 at 25 °C and I = 0.15 M NaCl, respectively) were used at 0.05 M concentration to keep the pH constant. The pseudo-first-order rate constants (kobs) were calculated by fitting the absorbance or relaxivity-time data pairs to Equation (1) (1) Xt=(X0-Xe)e^-kobst+Xe where Xt, X0, and Xe are the absorbance or relaxivity at time t, at the start and at equilibrium, respectively. The calculations were performed with the computer program Micromath Scientist, version 2.0 (Salt Lake City, UT, USA) using a standard least-squares procedure.
The kinetic inertness of the Mn(II) complexes is the other important parameter for the complexes considered for use in vivo. The inertness of Mn(II) complexes formed with trisubstituted 12-memberd macrocyclic ligands were characterized either by studying the rates of acid catalyzed dissociation or by studying transmetallation reactions occurring between the complexes and a suitable exchanging metal ion such as Zn(II) or Cu(II). The demetallation reactions of labile complexes were performed at high pH by following the ligand exchange reactions with trans-CDTA and DTPA ligands. The demetallation reactions were studied in the presence of a large Cu(II)/Zn(II)/trans-CDTA/DTPA excess or by using high acid concentration in order to ensure pseudo-first-order conditions (Equation 6). Scheme 1 outlines all the possible dissociation pathways for the Mn(II) complexes. […] The reactions of the released Mn(II) and L ligand with the exchanging L' and M' reactants are assumed to be very rapid.
The rate of dissociation can be expressed by the Equation (6), where kobs is the pseudo-first-order rate constant and [Mn(L)]t is the total concentration of the species containing [Mn(L)] complex. The [Mn(L)]t will differ slightly depending on the experimental conditions (in the presence of a large metal or ligand excess). As [Mn(L)]t = [Mn(L)] + [Mn(HL)] + [Mn(H2L)] + [Mn(L)M] + [Mn(L)(L')] + [Mn(HL)(L')] for reactions performed at high pH (in the pH range of 3.0–5.0 often applied in Cu(II) exchange reactions) will involve fewer protonated species while the acid catalyzed dissociation reactions run in the strongly acidic media (0.1–1.0 M acid concentration range) predominantly contain protonated species ([Mn(L)]t = [Mn(L)]+[Mn(HL)]+[Mn(H2L)]). (6) -d[MnL]t/dt=kobs[MnL]t
By taking into account the various complex species and the possible reaction pathways as well as the protonation and stability constants of the reactive intermediates, the following equation (Equation 7) can be derived to describe the rates of dissociation. […]

Row | Compound | log K1H ([2]; ligand protonation constant) | log K2H ([2]; ligand protonation constant) | log K3H ([2]; ligand protonation constant) | log K4H ([2]; ligand protonation constant) | log K5H ([2]; ligand protonation constant) | Σ log K2H [2] | log K6H ([2]; ligand protonation constant) | t1/2 0.1 M HCl ([3]; half-life of dissociation calculated for 0.1 M H+) [min] | r1p [1] [mM⁻¹ s⁻¹] | k1 (proton-assisted dissociation) [3] | k1 (proton-assisted dissociation) ([3]; ligand exchange reaction with trans-CDTA^4− or DTPA^5− in the pH range 8-9.5) [M⁻¹ s⁻¹] | k1 (proton-assisted dissociation) ([3]; stopped-flow in highly acidic condition, proton-assisted dissociation of the [Mn(HL)] complex)
1 | O=C(O)CN1CCNCCN(CC(=O)O)CCN(CC(=O)O)CC1 [DO3A] | 10.07 (5) | 8.93 (6) | 4.43 (9) | 4.11 (7) | 1.88 (7) | 19.00 | – | – | 1.30 | 0.45 M⁻¹ s⁻¹ | – | –
2 | O=P(O)(O)CN1CCNCCN(CP(=O)(O)O)CCN(CP(=O)(O)O)CC1 [DO3P] | 12.55 (2) | 11.37 (1) | 8.57 (2) | 7.02(2) | 5.36 (2) | 23.92 | 1.84 (2) | – | – | – | 240000 | –

The next lines start with results.

Row | log K1H ([2]; ligand protonation constant) | log K2H ([2]; ligand protonation constant) | log K3H ([2]; ligand protonation constant) | log K4H ([2]; ligand protonation constant) | log K5H ([2]; ligand protonation constant) | Σ log K2H [2] | log K6H ([2]; ligand protonation constant) | t1/2 0.1 M HCl ([3]; half-life of dissociation calculated for 0.1 M H+) [min] | Compound | r1p [1] [mM⁻¹ s⁻¹] | k1 (proton-assisted dissociation) [3] | k1 (proton-assisted dissociation) ([3]; ligand exchange reaction with trans-CDTA^4− or DTPA^5− in the pH range 8-9.5) [M⁻¹ s⁻¹] | k1 (proton-assisted dissociation) ([3]; stopped-flow in highly acidic condition, proton-assisted dissociation of the [Mn(HL)] complex)
3 | 8.76 (3) | 4.10 (4) | – | – | – | 12.86 | – | – | NC(=O)CN1CCN(CC(N)=O)Cc2cccc(n2)CN(CC(N)=O)CC1 [PC3AM^H] | – | 0.0107 M⁻¹ s⁻¹ | – | –
4 | 9.97 (3) | 6.73 (5) | 3.22 (6) | 1.40 (9) | – | 16.70 | – | – | O=C(O)CN1CCN(CC(=O)O)Cc2cccc(n2)CN(CC(=O)O)CC1 [PCTA] | – | – | – | 0.112 M⁻¹ s⁻¹ and 0.109 M⁻¹ s⁻¹
5 | – | – | – | – | – | – | – | 25 | O=C(CN1CCN(CC(=O)N2CCCCC2)Cc2cccc(n2)CN(CC(=O)N2CCCCC2)CC1)N1CCCCC1.[Mn+2] [[Mn(PC3AM^Pip)]^2+] | – | (4.64 ± 0.04) × 10^−3 M^−1s^−1 | – | –
